One assay has as its target eIF4E/eIF4G interaction (Homo sapiens, UniProt P06730). Description: Fluorescent polarization assay. The class given is binding. As to conditions: FITC eIF4G peptide and recombinant eIF4E, ratio to Z (4EGI-1 = 1). How it is done:
The difference between the two measurement yields net polarization which is considered full signal of the assay (100% control). […] The activity of compound at each concentration is determined by comparing the fluorescent polarization (FP) signal in the presence of compound to the control (no compound) value. The percent inhibition is =100-((FP compound/FP control)*100).

In the next assay the test system is CRL2813 human melanoma. Kind of assay: SRB assay (inhibition of cell proliferation). Type of assay: cell-based. The source says:
(§1) A sulfur rhodamine B (SRB) assay was used to determine the extent of inhibition of cell proliferation as a measure of the anti-cancer activity of compounds of the present disclosure. The reagent SRB binds to cellular proteins and absorbs light proportionally to the cellular protein content, which is a surrogate marker for the number of cells. According to aspects of the present disclosure, the assay can be used to with any cancer cell line including breast cancer cell lines, prostate cancer cell lines, melanoma cell lines, lung cancer cell lines or any other cell lines of the cancers described herein.
(§2) The following protocol was used to determine the growth characteristics of certain cell lines CRL2351 human breast cancer and CRL2813 human melanoma from which cell lines having doubling times less than 48 hours were selected for growth inhibition experiments. […] The following materials were used in addition to the cancel cell lines: complete (5% fetal calf serum added) tissue culture media, 96-well tissue culture plates, Sulforhodamine B dye (SRB, 0.57% w/w), […] (TCA, 10%), acetic acid glacial (1%) and 10 mM Tris base. The cells were prepared and plated. Cancer cells were grown to 80% confluency in an incubator. The cells were trypsinized per standard protocol or as needed for each cell line. The trypsin was neutralized, cells dissociated and counted. Each cell line was plated at a density of 500, 1000 and 3000 cells per well (six wells each) in five separate plates. The cells were then returned to the incubator. One plate was then removed each day starting day one after plating. 100 μl of 10% TCA was then added and the cells were fixed at 4° C. until all the cells were fixed. […] The cell growth for vehicle treatment is considered to be 100%. The optical density was then measured and plotted for each starting cell number and cell line against time. The percent cell growth inhibition was calculated as 100 minus the % of control cell growth. The % of control cell growth=((mean OD sample−Mean OD day 0)/(mean OD vehicle−Mean OD day 0))*100.
A general note: The SRB assay estimates cell density from bound dye.

The subject of assay [1] is CRL2351 human breast cancer. Description: SRB assay (inhibition of cell proliferation). The class given is cell-based. As to conditions: CRL2351 human breast cancer cells.
Excerpt: as §1, §2

Setting [2] is: CRL2813 human melanoma cells, Tables 1, 4, 5, read-out: SRB-IC50 (μM) 2813.
Setting [3] is: Tables 1, 4, 5, read-out: SRB-IC50 (μM) 2351.
[4] abbreviates: Homo sapiens, CRL2813, CRL2813 human melanoma cells, summary table, read-out: IC50 [μM} CRL2813.
[5] abbreviates: Homo sapiens, summary table, read-out: IC50 [μM} CRL2351.
The mark [6] stands for this setting: CRL2813 human melanoma cells, summary table, read-out: IC50 [μM} CRL2813.
Setting [7] is: summary table, read-out: IC50 [μM} CRL2351.

Where two headings read alike, the source gives them in different places.

Chain of eIF4E/eIF4G interaction (P06730 whole entry): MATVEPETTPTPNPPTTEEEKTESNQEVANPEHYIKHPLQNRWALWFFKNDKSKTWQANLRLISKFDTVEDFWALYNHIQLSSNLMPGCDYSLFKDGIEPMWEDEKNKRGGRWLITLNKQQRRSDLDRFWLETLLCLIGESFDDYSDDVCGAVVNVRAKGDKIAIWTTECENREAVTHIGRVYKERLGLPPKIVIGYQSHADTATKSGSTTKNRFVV

Take `[N-]=[N+]=Nc1ccc(-c2csc(NN=C(Cc3ccccc3[N+](=O)[O-])C(=O)O)n2)cc1` [KH-8]: the “Fp (ratio to Z)” value at eIF4E/eIF4G interaction is 0.99.

Turning to `O=C(O)C(Cc1ccccc1[N+](=O)[O-])=NNc1nc(-c2cccc(OCCCCBr)c2)cs1` (mixture of isomers) [KH155], the values for the IC50 (with CRL2813 human melanoma (setting [2]); in assay [1] (setting [3])) were 10.8 µM and 8.6 µM, respectively.

As for `O=C(O)C(Cc1ccccc1[N+](=O)[O-])=NNc1nc(-c2cccc(OCCCBr)c2)cs1` (single isomer, unassigned) [KH154-s], in assay [1] (setting [3]), the IC50 – broadly, the concentration at which inhibition is half-maximal – came to 1.5 µM.

For the molecule `O=C(O)C(Cc1ccccc1[N+](=O)[O-])=NNc1nc(-c2cccc(OCCCCCBr)c2)cs1` (mixture of isomers) [KH156], the results for the IC50 (in the assay with CRL2813 human melanoma (setting [2]); in assay [1] (setting [3])) were 6 µM and 9.1 µM, respectively.

In the case of `O=C(O)C(Cc1ccccc1[N+](=O)[O-])=NNc1nc(-c2cccc(OCCCBr)c2)cs1` (single isomer, unassigned) [KH154-f], the IC50 came out at 0.7 µM in the assay with CRL2813 human melanoma (setting [2]) and 3.5 µM in assay [1] (setting [3]).

On to `O=C(O)/C(Cc1ccccc1[N+](=O)[O-])=N\Nc1nc2c(s1)COc1c-2ccc(Cl)c1Cl` [PC-202S, 2-(2-(6,7-dichloro-4H-chromeno[4,3-d]thiazol-2-yl)hydrazono)-3-(2-nitrophenyl)propanoic acid], for which the IC50 with CRL2813 human melanoma (setting [4]) was found to be 4.5 µM.

With `COc1cc2c(cc1OC)-c1nc(N/N=C(/Cc3ccccc3[N+](=O)[O-])C(=O)O)sc1CC2` [PC-195S, (Z)-2-(2-(7,8-dimethoxy-4,5-dihydronaphtho[1,2-d]thiazol-2-yl)hydrazono)-3-(2-nitrophenyl) propanoic acid], the 50% inhibitory concentration (IC50) in the assay with CRL2813 human melanoma (setting [4]) was 7.5 µM; in assay [1] (setting [5]), 4 µM.

As for `O=C(O)C(Cc1ccccc1[N+](=O)[O-])=NNc1nc(-c2ccc(OCCCBr)cc2)cs1` (single isomer, unassigned) [KH147-s], the IC50 worked out at 5.5 µM with CRL2813 human melanoma (setting [2]) and 11.2 µM in assay [1] (setting [3]).

`O=C(O)C(Cc1ccccc1[N+](=O)[O-])=NNc1nc(-c2ccc(OCCCCOc3ccc(Cl)cc3)cc2)cs1` [KH-336S]: the “Fp (ratio to Z)” value at eIF4E/eIF4G interaction is given as 0.96.

For the molecule “2-(2-(7,8-dichloro-4,5-dihydronaphtho[1,2-d]thiazol-2-yl)hydrazono)-3-(2-nitrophenyl)propanoic acid [PC-159S]”, the half-inhibitory concentration (IC50) worked out at 4 µM in the assay with CRL2813 human melanoma (setting [6]) and 12.5 µM in assay [1] (setting [7]).

As for `O=C(O)C(Cc1ccccc1[N+](=O)[O-])=NNc1nc(-c2ccc(OCCCCCBr)cc2)cs1` (mixture of isomers) [KH148], the values for the IC50 (in the assay with CRL2813 human melanoma (setting [2]); in assay [1] (setting [3])) were 0.8 µM and below 0.54 µM, respectively.

With `O=C(O)C(Cc1ccccc1[N+](=O)[O-])=NNc1nc(-c2ccc(Cl)c(Cl)c2)cs1` [Compound 4EGI-1, reference compound], the half-inhibitory concentration (IC50) stood at 1.3 µM with CRL2813 human melanoma (Homo sapiens, CRL2813, CRL2813 human melanoma cells, Tables 1, 4, 5, read-out: SRB-IC50 (μM) 2813); 3.8 ± 1.06 µM with CRL2813 human melanoma (setting [4]); 6.5 µM in assay [1] (Homo sapiens, Tables 1, 4, 5, read-out: SRB-IC50 (μM) 2351); 5 ± 1.6 µM in assay [1] (setting [5]).

Regarding `O=C(O)C(Cc1ccccc1[N+](=O)[O-])=NNc1nc(-c2ccc(Br)cc2)cs1` [KH-53S], the “Fp (ratio to Z)” value on eIF4E/eIF4G interaction turned out to be 0.61.

In the case of `O=C(O)C(Cc1ccccc1[N+](=O)[O-])=NNc1nc(-c2ccc(OCCBr)cc2)cs1` (single isomer, unassigned) [KH146-s], the IC50 in the assay on CRL2813 human melanoma (setting [2]) came out at 14 µM; in assay [1] (setting [3]) it was 14.5 µM.

Regarding `CCN(CC)c1ccc(-c2csc(N/N=C(\Cc3ccccc3[N+](=O)[O-])C(=O)O)n2)cc1` [KY-615F], the figures for the IC50 (with CRL2813 human melanoma (setting [6]); in assay [1] (setting [7])) were 18.8 µM and 5.7 µM, respectively.

Take `O=C(O)/C(Cc1ccccc1[N+](=O)[O-])=N/Nc1nc2c(s1)COc1c-2ccc(Cl)c1Cl` [PC-202F, 2-(2-(6,7-dichloro-4H-chromeno[4,3-d]thiazol-2-yl)hydrazono)-3-(2-nitrophenyl)propanoic acid]: the IC50 with CRL2813 human melanoma (setting [4]) was below 1 µM.

Turning to `O=C(O)C(Cc1ccccc1[N+](=O)[O-])=NNc1nc(-c2ccccc2OCCBr)cs1` (single isomer, unassigned) [KH149-f], the 50% inhibitory concentration (IC50) (with CRL2813 human melanoma (setting [2]); in assay [1] (setting [3])) was 1 µM in each case.

Take `O=C(O)C(Cc1ccccc1[N+](=O)[O-])=NNc1nc(-c2ccccc2OCCBr)cs1` (single isomer, unassigned) [KH149-s]: the values for the IC50 (in the assay with CRL2813 human melanoma (setting [2]); in assay [1] (setting [3])) were 11.5 µM and 6 µM, respectively.

Take `O=C(O)C(Cc1ccccc1[N+](=O)[O-])=NNc1nc(-c2ccccc2OCCCBr)cs1` (mixture of isomers) [KH150]: the half-maximal inhibitory concentration (IC50) was 0.9 µM with CRL2813 human melanoma (setting [2]) and 2.8 µM in assay [1] (setting [3]).

Turning to `O=C(O)/C(Cc1ccccc1[N+](=O)[O-])=N/Nc1nc2c(s1)COc1cc(Cl)c(Cl)cc1-2` [PC-204F, 2-(2-(7,8-dichloro-4H-chromeno[4,3-d]thiazol-2-yl)hydrazono)-3-(2-nitrophenyl)propanoic acid], the IC50 in assay [1] (setting [5]) is 2 µM.

Turning to `O=C(O)/C(Cc1ccccc1[N+](=O)[O-])=N\Nc1nc(-c2ccc(N3CCOCC3)c(Br)c2)cs1` [KH-287II-S], the “Fp (ratio to Z)” value at eIF4E/eIF4G interaction amounted to 0.62.

With “2-(2-(7,8-dichloro-4H-chromeno[4,3-d]thiazol-2-yl)hydrazono)-3-(2-nitrophenyl)propanoic acid [PC-204S]”, the IC50 in the assay on CRL2813 human melanoma (setting [6]) was 3 µM; in assay [1] (setting [7]), below 1 µM.

In the case of `O=C(O)/C(Cc1ccccc1[N+](=O)[O-])=N/Nc1nc2c(s1)CSc1c-2ccc(Cl)c1Cl` [PC-218F], the values for the concentration for half-maximal inhibition (IC50) (in the assay with CRL2813 human melanoma (setting [4]); in assay [1] (setting [5])) were 8 µM and below 1 µM, respectively.

`O=C(O)C(Cc1ccccc1[N+](=O)[O-])=NNc1nc(-c2ccc(OCCCOc3ccc(Cl)cc3)cc2)cs1` [KH-332S]: the “Fp (ratio to Z)” value at eIF4E/eIF4G interaction is 1.09.

For `O=C(O)c1nn(-c2nc(-c3ccc(Cl)c(Cl)c3)cs2)c2ccc([N+](=O)[O-])cc12` [RYF-440], at eIF4E/eIF4G interaction, the “Fp (ratio to Z)” value is 1.3.

As to `O=C(O)/C(Cc1ccccc1[N+](=O)[O-])=N\Nc1nc2c(s1)CSc1cc(Cl)c(Cl)cc1-2` [PC-218S], the half-maximal inhibitory concentration (IC50) was 3 µM with CRL2813 human melanoma (setting [4]) and 5.5 µM in assay [1] (setting [5]).

For `O=C(O)C(Cc1ccccc1[N+](=O)[O-])=NNc1nc(-c2ccccc2OCCCCCBr)cs1` (single isomer, unassigned) [KH152-s], the figures for the IC50 (in the assay with CRL2813 human melanoma (setting [2]); in assay [1] (setting [3])) were 4.5 µM and 7.8 µM, respectively.

In the case of “2-(2-(6,7-dichloro-4,5-dihydronaphtho[1,2-d]thiazol-2-yl)hydrazono)-3-(2-nitrophenyl)propanoic acid [PC-163F]”, the IC50 (in the assay with CRL2813 human melanoma (setting [6]); in assay [1] (setting [7])) was below 1 µM in each case.

With `O=C(O)C(Cc1ccccc1[N+](=O)[O-])=NNc1nc(-c2ccccc2OCCCCCBr)cs1` (single isomer, unassigned) [KH152-f], the IC50 is below 1 µM with CRL2813 human melanoma (setting [2]) and 2.4 µM in assay [1] (setting [3]).

With `O=C(O)C(Cc1ccccc1[N+](=O)[O-])=NNc1nc(-c2cccc(OCCBr)c2)cs1` (single isomer, unassigned) [KH153-f], the half-inhibitory concentration (IC50) in the assay with CRL2813 human melanoma (setting [2]) is 8 µM; in assay [1] (setting [3]), 13.2 µM.

Take “2-(2-(6,7-dichloro-4,5-dihydronaphtho[1,2-d]thiazol-2-yl)hydrazono)-3-(2-nitrophenyl)propanoic acid [PC-163S]”: the IC50 (in the assay on CRL2813 human melanoma (setting [6]); in assay [1] (setting [7])) was 3 µM throughout.

For `O=C(O)C(Cc1ccccc1[N+](=O)[O-])=NNc1nc(-c2cccc(OCCBr)c2)cs1` (single isomer, unassigned) [KH153-s], the IC50 in assay [1] (setting [3]) was 14 µM.

Consider `O=C(O)C(Cc1ccccc1[N+](=O)[O-])=NNc1nc(-c2ccc(OCCCBr)cc2)cs1` (single isomer, unassigned) [KH147-f], for which the concentration for half-maximal inhibition (IC50) in the assay with CRL2813 human melanoma (setting [2]) was determined as 1.1 µM; in assay [1] (setting [3]), 0.5 µM.

On to `O=C(O)C(Cc1ccccc1[N+](=O)[O-])=NNc1nc(-c2ccc(OCCBr)cc2)cs1` (single isomer, unassigned) [KH146-f], for which the results for the IC50 (in the assay with CRL2813 human melanoma (setting [2]); in assay [1] (setting [3])) were 2.1 µM and below 0.54 µM, respectively.

(Values after patent US8969573B2, “Compounds for the inhibition of cellular proliferation” (President and Fellows of Harvard College, priority 2010, dated 2015).)
